Test results as given in ChEMBL document CHEMBL6109064, “Functional and structural polypharmacology of indazole-based privileged ligands to tackle the undruggability of membrane transporters” (Eur J Med Chem, 2025).
Calls of active or inactive are those of the source. The calls are words filed in the database; no cut-off is given here.

Assays:
Type in all cases: cell-based
[1] = molecular target: Sodium-dependent dopamine transporter (Homo sapiens) (UniProt Q01959); assay: Inhibition of DAT (unknown origin) expressed in HEK293 cells assessed as inhibition of MPP+ transport incubated for 5 mins by tandem mass spectrometry
[2] = molecular target: T1, Solute carrier organic anion transporter family member 1B3 (Homo sapiens, UniProt Q9NPD5); assay: Inhibition of OATP1B3 (unknown origin) transfected in human A-431 cells assessed as inhibition of DHPDS uptake preincubated for 5 mins followed by DHPDS addition and measured after 10 mins by fluorescence based analysis
T1 sequence (Q9NPD5 whole entry): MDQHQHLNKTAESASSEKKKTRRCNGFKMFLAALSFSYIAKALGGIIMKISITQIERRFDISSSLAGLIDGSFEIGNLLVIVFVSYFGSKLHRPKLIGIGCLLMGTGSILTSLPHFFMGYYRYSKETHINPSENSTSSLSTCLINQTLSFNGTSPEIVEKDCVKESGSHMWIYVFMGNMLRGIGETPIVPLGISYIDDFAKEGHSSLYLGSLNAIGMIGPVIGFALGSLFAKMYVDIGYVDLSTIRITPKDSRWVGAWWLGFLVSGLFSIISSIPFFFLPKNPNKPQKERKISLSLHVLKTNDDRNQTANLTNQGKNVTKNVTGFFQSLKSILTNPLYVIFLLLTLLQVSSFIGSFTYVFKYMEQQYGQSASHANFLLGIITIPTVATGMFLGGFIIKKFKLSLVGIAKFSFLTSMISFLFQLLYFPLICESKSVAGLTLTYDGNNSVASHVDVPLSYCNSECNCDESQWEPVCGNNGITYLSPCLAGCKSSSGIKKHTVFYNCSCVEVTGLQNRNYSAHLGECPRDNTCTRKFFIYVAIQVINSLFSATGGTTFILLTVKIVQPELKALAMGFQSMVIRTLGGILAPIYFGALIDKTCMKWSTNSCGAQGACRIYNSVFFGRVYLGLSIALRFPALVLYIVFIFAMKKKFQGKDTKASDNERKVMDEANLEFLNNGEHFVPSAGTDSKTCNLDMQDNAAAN

[3] = molecular target: T2, Multidrug resistance-associated protein 1 (Homo sapiens, UniProt P33527); assay: Inhibition of ABCC1 in human NCI-H69AR cells assessed as increase in daunorubicin fluorescence intensity using daunorubicin as tracer preincubated for 30 mins followed by daunorubicin addition and measured for 180 mins by flow cytometry
[4] = molecular target: T3, ATP-binding cassette sub-family C member 10 (Homo sapiens, UniProt Q5T3U5); assay: Reversal of ABCC10 (unknown origin) -mediated multidrug resistance transfected in human HEK293 MRP7 cells assessed as increase in paclitaxel-mediated cytotoxicity incubated for 68 hrs in presence of paclitaxel by MTT assay
T3 sequence (Q5T3U5 whole entry): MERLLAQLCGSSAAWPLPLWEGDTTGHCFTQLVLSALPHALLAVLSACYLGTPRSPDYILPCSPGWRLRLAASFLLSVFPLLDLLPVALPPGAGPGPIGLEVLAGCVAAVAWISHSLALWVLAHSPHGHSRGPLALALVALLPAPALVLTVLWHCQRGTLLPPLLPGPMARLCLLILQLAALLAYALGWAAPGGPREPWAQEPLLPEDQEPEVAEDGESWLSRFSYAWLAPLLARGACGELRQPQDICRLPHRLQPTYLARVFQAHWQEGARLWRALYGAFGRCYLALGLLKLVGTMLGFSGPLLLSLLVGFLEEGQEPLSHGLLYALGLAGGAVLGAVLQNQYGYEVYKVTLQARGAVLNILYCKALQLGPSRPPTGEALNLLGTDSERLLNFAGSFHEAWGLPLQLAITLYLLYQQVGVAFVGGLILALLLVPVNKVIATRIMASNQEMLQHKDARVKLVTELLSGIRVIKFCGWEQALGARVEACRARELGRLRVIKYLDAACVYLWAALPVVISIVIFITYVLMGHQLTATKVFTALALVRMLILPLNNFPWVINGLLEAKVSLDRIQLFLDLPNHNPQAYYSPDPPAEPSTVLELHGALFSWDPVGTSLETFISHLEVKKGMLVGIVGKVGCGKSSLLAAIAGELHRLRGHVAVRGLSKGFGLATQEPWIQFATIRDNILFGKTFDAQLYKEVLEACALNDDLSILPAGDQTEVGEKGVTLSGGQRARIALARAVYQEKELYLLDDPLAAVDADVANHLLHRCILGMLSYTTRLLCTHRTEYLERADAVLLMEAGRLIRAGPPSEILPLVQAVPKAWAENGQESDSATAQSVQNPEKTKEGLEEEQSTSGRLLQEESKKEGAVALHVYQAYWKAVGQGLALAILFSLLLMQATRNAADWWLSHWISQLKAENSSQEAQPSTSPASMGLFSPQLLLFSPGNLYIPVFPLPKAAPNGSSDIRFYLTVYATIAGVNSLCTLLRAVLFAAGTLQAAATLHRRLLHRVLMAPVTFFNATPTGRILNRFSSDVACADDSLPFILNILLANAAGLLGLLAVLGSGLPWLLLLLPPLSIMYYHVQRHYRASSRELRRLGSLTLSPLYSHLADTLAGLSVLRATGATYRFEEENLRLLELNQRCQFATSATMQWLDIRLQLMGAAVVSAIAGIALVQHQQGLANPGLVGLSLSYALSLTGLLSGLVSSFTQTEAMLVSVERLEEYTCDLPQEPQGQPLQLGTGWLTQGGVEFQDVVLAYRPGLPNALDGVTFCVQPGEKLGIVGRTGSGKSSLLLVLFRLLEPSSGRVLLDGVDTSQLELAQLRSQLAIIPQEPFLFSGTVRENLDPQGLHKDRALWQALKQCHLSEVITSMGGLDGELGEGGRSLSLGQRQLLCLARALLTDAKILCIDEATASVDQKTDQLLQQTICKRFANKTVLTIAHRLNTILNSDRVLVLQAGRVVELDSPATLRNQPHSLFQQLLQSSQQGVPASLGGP

[5] = molecular target: T2, Multidrug resistance-associated protein 1; assay: Inhibition of ABCC1 in human NCI-H69AR cells assessed as increase in rhodamine123 fluorescence intensity using rhodamine123 as tracer preincubated for 30 mins followed by rhodamine 123 addition and measured for 180 mins by flow cytometry

T2 sequence (P33527 whole entry): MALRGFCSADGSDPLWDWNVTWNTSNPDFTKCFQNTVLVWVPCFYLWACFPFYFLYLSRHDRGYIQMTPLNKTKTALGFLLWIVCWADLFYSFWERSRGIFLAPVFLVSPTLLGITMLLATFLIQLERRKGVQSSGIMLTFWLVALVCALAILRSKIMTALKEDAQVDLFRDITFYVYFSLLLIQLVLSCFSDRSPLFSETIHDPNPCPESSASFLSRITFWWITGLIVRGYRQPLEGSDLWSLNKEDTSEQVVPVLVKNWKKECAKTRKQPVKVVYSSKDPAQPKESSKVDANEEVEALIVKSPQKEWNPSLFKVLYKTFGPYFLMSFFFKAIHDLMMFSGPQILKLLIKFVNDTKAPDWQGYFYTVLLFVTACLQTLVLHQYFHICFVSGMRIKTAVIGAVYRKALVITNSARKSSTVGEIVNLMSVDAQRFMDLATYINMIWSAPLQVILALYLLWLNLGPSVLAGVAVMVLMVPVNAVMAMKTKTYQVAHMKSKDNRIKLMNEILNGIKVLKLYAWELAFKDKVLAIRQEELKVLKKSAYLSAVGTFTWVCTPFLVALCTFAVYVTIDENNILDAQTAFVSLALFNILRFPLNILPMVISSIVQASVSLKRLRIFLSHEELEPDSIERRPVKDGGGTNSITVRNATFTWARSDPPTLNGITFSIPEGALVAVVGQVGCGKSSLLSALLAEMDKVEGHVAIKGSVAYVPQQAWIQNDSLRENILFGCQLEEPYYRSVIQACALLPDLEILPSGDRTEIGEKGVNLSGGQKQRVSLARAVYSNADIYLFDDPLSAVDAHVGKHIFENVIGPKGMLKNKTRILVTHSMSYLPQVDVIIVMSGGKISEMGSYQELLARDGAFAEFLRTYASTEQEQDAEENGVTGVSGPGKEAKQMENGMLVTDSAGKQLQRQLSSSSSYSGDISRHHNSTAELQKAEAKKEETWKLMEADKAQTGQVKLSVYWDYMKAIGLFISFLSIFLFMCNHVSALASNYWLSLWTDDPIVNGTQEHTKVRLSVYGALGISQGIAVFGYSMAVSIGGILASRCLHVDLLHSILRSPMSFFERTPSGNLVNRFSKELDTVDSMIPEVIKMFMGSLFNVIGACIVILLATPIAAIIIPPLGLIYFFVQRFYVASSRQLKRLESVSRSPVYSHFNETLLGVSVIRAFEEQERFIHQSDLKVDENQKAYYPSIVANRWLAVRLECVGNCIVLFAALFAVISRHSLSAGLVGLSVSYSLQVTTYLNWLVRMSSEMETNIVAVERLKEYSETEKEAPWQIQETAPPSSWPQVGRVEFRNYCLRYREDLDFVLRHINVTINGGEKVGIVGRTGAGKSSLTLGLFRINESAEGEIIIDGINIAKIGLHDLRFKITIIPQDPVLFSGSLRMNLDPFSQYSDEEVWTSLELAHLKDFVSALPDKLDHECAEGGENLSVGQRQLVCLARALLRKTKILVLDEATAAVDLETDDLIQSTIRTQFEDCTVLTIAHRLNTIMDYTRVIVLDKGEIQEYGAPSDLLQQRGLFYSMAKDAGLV
Sequence of Sodium-dependent dopamine transporter (Homo sapiens) (Q01959 whole entry): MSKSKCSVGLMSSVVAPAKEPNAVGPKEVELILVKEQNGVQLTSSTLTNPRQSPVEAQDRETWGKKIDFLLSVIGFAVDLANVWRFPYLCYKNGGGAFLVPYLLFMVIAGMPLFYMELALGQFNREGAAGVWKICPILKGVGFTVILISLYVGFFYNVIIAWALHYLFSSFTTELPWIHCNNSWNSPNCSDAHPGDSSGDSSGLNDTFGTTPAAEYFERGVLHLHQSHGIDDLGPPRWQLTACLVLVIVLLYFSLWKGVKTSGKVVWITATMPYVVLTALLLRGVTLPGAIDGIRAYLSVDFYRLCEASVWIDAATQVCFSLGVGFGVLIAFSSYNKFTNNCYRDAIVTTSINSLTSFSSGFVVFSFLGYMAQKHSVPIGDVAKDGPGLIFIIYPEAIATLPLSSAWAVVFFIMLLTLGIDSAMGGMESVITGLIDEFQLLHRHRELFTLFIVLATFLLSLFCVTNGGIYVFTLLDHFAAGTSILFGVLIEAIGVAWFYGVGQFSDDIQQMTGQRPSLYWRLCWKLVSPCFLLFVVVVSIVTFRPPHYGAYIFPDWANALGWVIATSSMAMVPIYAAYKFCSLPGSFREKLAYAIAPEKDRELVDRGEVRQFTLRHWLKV

inhibition [1]	IC50 [2]	IC50 [3]	IC50 ([5]; nci-h69ar)	IC50 ([5]; read-out: IC50)	Structure (SMILES)	EC50 [4]
inactive	14100 nM	492 nM	Not_active		O=C(Cn1nc(C(=O)Nc2ccccn2)c2ccccc21)Nc1cc(Cl)ccc1Cl	Not_active
inactive	1840 nM	5150 nM		2900 nM	O=C(Cn1nc(C(=O)Nc2cccnc2)c2ccccc21)Nc1ccc(Cl)cc1	
inactive	2290 nM	1480 nM		2660 nM	COc1cccc(NC(=O)Cn2nc(C(=O)Nc3cccc(OC)c3)c3ccccc32)c1	Not_active
inactive	1800 nM	2190 nM		3790 nM	COc1cccc(NC(=O)c2nn(CC(=O)Nc3ccccc3OC)c3ccccc23)c1	Not_active
